Data from US6106856A (The Board of Governors for Higher Education, State of Rhode …, priority 1995, dated 2000).
One block for each molecule: values may come before it.

How the values were obtained:
[1] = cited from earlier work
[2] = Recrystallization of applied saturated drug solution during the permeation experiment; assay type: physicochemical; settings: applied crystal-free
Description: (§1) […] of this solution was given on heat-separated human epidermis (breast, area 4.5 cm^2) which was mounted on a Franz-diffusion cell. The cell was filled with 23 ml of a mixture of 60 parts of a 0.9% NaCl-solution and 40 parts of polyethylene glycol 400 (v/v).

[3] = Permeation through heat-separated human epidermis (Franz-diffusion cell); assay type: in vitro ADME
Description: as §1

Structure (SMILES): O=[N+]([O-])OCC(CO[N+](=O)[O-])O[N+](=O)[O-] [nitroglycerin]
- tolerance observed in patients ([1]; transdermal nitroglycerin): tolerance observed in patients

- recrystallization during the experiment [2]: recrystallization
Structure (SMILES): COCCOC(=O)C1=C(C)NC(C)=C(C(=O)OC(C)C)C1c1cccc([N+](=O)[O-])c1 (stereo not shown) [Nimodipine]

Structure (SMILES): COC(=O)C1=C(C)NC(C)=C(C(=O)OC)C1c1ccccc1[N+](=O)[O-] [Nifedipine]
- Flux ([3]; 8 h column): 0.35 μg/cm *h
- Flux ([3]; 24 h column): 7.44 μg/cm *h
- Flux ([3]; 32 h column): 6.13 μg/cm *h
- Flux ([3]; 48 h column): 12.29 μg/cm *h
- correlation of hypotensive and untoward side effects with plasma concentration ([1]; clinical studies): correlated with the plasma nifedipine concentration
- variation of transient, high plasma levels ([1]; oral administration of conventional capsules): may vary by tenfold
- interindividual variability of plasma levels ([1]; oral administration): Extraordinary interindividual variability
- heart rate and blood pressure effect on rapid increase of plasma concentration ([1]; rapid increase of plasma nifedipine concentration): marked increase in heart rate and little effect on blood pressure
